Measured values from US20060040827A1, “Environmentally safe herbicide, fungicide, bactericide and adjuvant composition” (priority 2004, published 2006).

Test system: grass and broad leaf
Test: Grass and broad leaf kill, cocktails compared against glyphosate (5%)
Type: in vivo
Source text: This cocktail can be mixed with water prior to use at 1:5 parts of water to 1:200 parts of water. The higher the concentration of the cocktail the faster the kill of the weeds. Cocktail I was compared against glyphosate (5%).
Compared against Glyphosate at 5%:
Same as Cocktail I but add concentrated glyphosate to yield 1% glyphosate in mix.

With `O=C(O)CNCP(=O)(O)O` [Glyphosate, N-(phosphonomethyl) glycine] the “Grass and broad leaf kill, 24 hours” value (24 hours, Cocktail I vs glyphosate at 5%) was 10%, the “Broad leaf and grass kill, 24 hours” value (24 hours, Cocktail II vs glyphosate at 5%) was 10% and the “Broad leaf and grass kill, 24 hours” value (24 hours, Cocktail III (1% glyphosate in mix) vs glyphosate at 5%) was 10%. The “Broad leaf and grass kill, 2 days” value (Cocktail II vs glyphosate at 5%) was 20%, the “Broad leaf and grass kill, 2 days” value (Cocktail III (1% glyphosate in mix) vs glyphosate at 5%) was 20% and the “Grass and broad leaf kill, 7 days” value (7 days, Cocktail I vs glyphosate at 5%) was 100%. The “Broad leaf and grass kill, 7 days” value (7 days, Cocktail II vs glyphosate at 5%) was 100% and the “Broad leaf and grass kill, 7 days” value (7 days, Cocktail III (1% glyphosate in mix) vs glyphosate at 5%) was 100%.
